This is an account of results in ChEMBL document CHEMBL1201862, “PubChem BioAssay data set” (2004).

Assay [1] has as its target Voltage-gated inwardly rectifying potassium channel KCNH2 (Homo sapiens, UniProt Q12809). In words: concentration-dependent hERG rescue from blockers – cell-based, thallium flux, dose response (AID 2121). It is filed as ADME. (In general: hERG is a cardiac potassium channel; its block is linked to QT prolongation.)
The nature of assay [2]: Luminescence-based dose response cell-based high throughput screening assay for cytotoxic compounds using the IEC-6 intestinal epithelial cell line. [Related pubchem assays: 1858 (Summary AID.), 1825 (Counterscreen.), 1907 (Confirmation screen.)]. In kind it is functional.
Assay [3] is described as follows: Luminescence Cell-Based Dose Retest to Confirm Inhibitors of Cancer Stem Cells. [Related pubchem assays (depositor defined):AID2717, AID2721]. It is filed as functional. As to conditions: Homo sapiens.
Assay [4] can be described thus: cells. In kind it is functional.
A short description of assay [5]: HepG2 cell cytotoxicity, dose response, cytotoxicity control for non-replicating M. tuberculosis project (AID 489018). In kind it is functional. As to conditions: Mycobacterium tuberculosis.
For assay [6], the target named is Paired box protein Pax-8 (Homo sapiens, UniProt Q06710). In words: PAX8 transcriptional activity inhibition in RMG-I – RMG-I cells, luciferase, cherry-pick, dose response (AID 687027).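 Further: luciferase reporter driven by Pax8 target thyroperoxidase promoter measured by SteadyGlo luminescence.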 In kind it is functional, cell-based.
A short description of assay [7]: Vero E6 cell cytotoxicity, dose response, cytotoxicity control for non-replicating M. tuberculosis project, secondary assay (AID 492998). In kind it is functional, VeroE6. As to conditions: Vero C1008.
Assay [8] is described as follows: THP-1 cell cytotoxicity, dose response, cytotoxicity control for non-replicating M. tuberculosis project (AID 489025). In kind it is functional.
Assay [9] deals with T1, fMet-Leu-Phe receptor (Homo sapiens, UniProt P21462).
T1 sequence (P21462 whole entry): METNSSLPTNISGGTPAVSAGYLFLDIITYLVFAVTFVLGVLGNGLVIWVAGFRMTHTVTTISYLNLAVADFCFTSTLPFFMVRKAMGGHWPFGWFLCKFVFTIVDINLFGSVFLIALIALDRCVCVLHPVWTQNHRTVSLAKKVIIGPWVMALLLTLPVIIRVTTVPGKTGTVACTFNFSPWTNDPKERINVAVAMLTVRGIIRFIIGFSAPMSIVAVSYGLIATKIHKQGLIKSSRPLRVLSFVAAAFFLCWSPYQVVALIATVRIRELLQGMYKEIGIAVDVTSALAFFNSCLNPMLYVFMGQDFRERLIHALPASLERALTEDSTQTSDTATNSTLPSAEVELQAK
Description: formyl peptide receptor binders – dose response (AID 519). In kind it is functional.

For assay [10], the target named is Large T antigen (Simian virus 40, UniProt P03070). It is filed as functional, Betapolyomavirus macacae.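 Further: Confirmatory-stage PubChem screen for compounds that inhibit SV40 T antigen.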
Assay [11] concerns the target Bcl-2-like protein 10 (Homo sapiens, UniProt Q9HD36). Description: Bcl-B/TR3 peptide binding disruption – biochemical, fluorescence polarization, FITC-TR3 peptide, selectivity assay for Bfl-1 inhibitor project, primary screen (AID 748). On the technique in general: Fluorescence polarisation rises when a labelled molecule tumbles more slowly, as on binding a larger partner.

Assay [12] deals with Nonstructural protein 1 (Influenza A virus, UniProt Q194T2). It is filed as functional, Influenza A virus (A/California/07/2009(H1N1)).
Assay [13] concerns the target T2, Apoptotic protease-activating factor 1 (Homo sapiens, UniProt O14727).
T2 sequence (O14727 whole entry): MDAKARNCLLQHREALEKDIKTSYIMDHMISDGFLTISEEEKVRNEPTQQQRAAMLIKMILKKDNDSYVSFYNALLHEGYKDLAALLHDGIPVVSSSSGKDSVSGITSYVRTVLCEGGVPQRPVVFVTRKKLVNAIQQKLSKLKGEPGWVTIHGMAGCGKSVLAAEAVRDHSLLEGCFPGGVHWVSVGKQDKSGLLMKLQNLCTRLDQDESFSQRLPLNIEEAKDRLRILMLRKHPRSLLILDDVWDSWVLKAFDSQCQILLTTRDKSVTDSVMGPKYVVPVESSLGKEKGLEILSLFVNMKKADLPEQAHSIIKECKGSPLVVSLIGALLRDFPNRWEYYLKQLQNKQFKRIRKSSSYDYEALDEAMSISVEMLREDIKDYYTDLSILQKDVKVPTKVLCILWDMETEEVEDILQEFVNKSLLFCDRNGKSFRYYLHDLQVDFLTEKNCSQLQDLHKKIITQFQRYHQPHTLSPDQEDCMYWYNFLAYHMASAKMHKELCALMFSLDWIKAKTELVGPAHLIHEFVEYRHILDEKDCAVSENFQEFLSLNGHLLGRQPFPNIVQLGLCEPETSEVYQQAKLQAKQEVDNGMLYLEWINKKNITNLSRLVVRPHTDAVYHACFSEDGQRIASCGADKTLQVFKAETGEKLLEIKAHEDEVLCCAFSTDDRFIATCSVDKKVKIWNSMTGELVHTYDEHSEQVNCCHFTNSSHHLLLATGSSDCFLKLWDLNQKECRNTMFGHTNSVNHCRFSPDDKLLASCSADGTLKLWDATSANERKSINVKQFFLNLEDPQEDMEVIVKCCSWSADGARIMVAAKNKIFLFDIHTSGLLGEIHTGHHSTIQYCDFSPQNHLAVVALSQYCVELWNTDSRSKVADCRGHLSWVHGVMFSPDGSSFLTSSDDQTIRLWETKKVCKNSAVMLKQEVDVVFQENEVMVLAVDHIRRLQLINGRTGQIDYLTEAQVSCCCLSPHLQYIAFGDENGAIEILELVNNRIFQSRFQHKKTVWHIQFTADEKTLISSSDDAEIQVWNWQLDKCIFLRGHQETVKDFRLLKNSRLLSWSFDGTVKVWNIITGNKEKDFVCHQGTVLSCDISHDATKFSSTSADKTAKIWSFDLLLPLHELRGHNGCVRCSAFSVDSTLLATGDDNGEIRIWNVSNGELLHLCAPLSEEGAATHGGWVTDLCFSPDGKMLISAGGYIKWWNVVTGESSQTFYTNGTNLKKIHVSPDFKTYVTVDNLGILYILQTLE
In kind it is functional.

Assay [14] deals with Estrogen receptor beta (Homo sapiens, UniProt Q92731). In words: blockers of SRC-3 recruitment to ERβ – biochemical, ELISA, streptavidin-HRP readout, orthogonal assay, confirmation (AID 1060). On the technique in general: An ELISA detects its analyte on a solid surface through an enzyme-linked reagent.
The target in assay [15] is T3, Oxysterols receptor LXR-beta (Homo sapiens, UniProt P55055).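 Further: agonist activity at LXR measured by a cell-based luminescence readout across a dose range, run as a counterscreen for daf-12 agonists; HEK293 cells with Gal4-LXR fusion and GAL4-driven luciferase reporter; potency for activation of Gal4-LXR reporter so compounds are agonists.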
T3 sequence (P55055 whole entry): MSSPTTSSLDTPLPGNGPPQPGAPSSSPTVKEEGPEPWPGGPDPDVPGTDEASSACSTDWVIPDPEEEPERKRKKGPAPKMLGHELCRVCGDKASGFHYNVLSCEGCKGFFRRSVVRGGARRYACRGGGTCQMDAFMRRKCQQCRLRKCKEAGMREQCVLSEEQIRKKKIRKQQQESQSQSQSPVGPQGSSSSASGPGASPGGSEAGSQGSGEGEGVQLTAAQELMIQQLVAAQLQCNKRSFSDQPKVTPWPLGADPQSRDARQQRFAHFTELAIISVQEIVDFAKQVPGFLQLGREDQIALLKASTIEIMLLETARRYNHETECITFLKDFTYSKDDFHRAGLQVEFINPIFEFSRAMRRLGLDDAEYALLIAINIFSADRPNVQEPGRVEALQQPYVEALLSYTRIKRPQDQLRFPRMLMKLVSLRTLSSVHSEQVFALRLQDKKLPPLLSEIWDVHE
In kind it is functional, cell-based.

In assay [16] the target is T4, Bcl-2-related protein A1 (Mus musculus, UniProt Q07440).
T4 sequence (Q07440 whole entry): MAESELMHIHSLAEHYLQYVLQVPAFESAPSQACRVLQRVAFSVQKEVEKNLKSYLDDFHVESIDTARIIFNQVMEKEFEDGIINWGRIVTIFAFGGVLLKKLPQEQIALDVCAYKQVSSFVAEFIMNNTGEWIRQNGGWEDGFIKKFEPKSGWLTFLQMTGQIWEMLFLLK
Description: small-molecule antagonists of Bfl-1/BH3 interaction – biochemical, TR-FRET, mouse Bfl-1, confirmation (AID 621).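 Further: TR-FRET binding of GST-Bfl-1 to FITC-labelled Bid peptide via terbium antibody.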

Assay [17] has as its target T4, Bcl-2-related protein A1. In words: Bfl-1 binding inhibitors, SAR follow-up, biochemical, fluorescence polarization (AID 1070).
Assay [18] deals with T5, Protein skinhead-1 (Caenorhabditis elegans, UniProt P34707).
T5 sequence (P34707 whole entry): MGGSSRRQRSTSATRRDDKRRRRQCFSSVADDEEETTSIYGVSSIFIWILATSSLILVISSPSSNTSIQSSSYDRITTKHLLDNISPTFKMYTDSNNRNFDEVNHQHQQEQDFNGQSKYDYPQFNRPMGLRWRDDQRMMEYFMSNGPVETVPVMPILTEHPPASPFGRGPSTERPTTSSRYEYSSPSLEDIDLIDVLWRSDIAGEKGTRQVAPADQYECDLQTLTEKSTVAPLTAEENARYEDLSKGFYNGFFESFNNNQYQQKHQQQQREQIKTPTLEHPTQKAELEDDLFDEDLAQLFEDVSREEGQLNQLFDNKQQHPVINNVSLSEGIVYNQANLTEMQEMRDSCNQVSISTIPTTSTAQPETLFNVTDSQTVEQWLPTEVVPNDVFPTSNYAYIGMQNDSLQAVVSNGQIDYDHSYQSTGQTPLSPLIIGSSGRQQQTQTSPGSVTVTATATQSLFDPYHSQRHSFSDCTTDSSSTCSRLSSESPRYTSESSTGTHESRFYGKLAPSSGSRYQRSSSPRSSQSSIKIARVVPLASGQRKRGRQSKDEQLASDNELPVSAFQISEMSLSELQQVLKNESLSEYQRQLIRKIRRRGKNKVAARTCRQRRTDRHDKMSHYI
It is filed as functional.

Assay [19] can be described thus: HPDE-C7 pancreatic duct cell viability loss – fluorescence, HTS (AID 430). In kind it is functional, cell-based. To be noted: Homo sapiens.
Assay [20] can be described thus: viability loss of HPDE-C7K cells – cell-based, fluorescence, HTS, primary screen (AID 431). It is filed as functional. To be noted: Homo sapiens.
Assay [21] in a line: Luminescent dose response cell-based high throughput screening assay for inhibitors of the Janus kinase 2 mutant JAK2V617F. [Related pubchem assays: 1446 (Primary screen.), 1521 (Confirmation assay.), 1486 (Counter screen.)]. In kind it is functional.
In assay [22] the target is Peroxisome proliferator-activated receptor gamma/Nuclear receptor corepressor 2 (Homo sapiens, UniProt P37231+Q9Y618). Description: Counterscreen for NR2E3 inverse agonists: TR-FRET-based biochemical high throughput dose response assay to identify inverse agonists of the interaction between peroxisome proliferator-activated receptor gamma (PPARg) and nuclear receptor co-repressor 2 (NCOR2). It is filed as functional.

For assay [23], the target named is Photoreceptor-specific nuclear receptor (Homo sapiens, UniProt Q9Y5X4). Description: ligands suppressing NR2E3 nuclear receptor activity – biochemical, TR-FRET, dose response (AID 463256). It is filed as functional.
Assay [24] addresses Sphingosine 1-phosphate receptor 2 (Homo sapiens, UniProt O95136). Description: Dose Response Cell Based Assay for Agonists of the S1P2 Receptor of Purchased Analogues. [Related pubchem assays: 729, 843, 854, 736 ]. In kind it is functional.
The target of assay [25] is NADPH oxidase 1 (Homo sapiens, UniProt Q9Y5S8). Description: Luminescence-based cell-based dose response assay to identify inhibitors of NADPH oxidase 1 (NOX1). It is filed as functional.
In assay [26] the target is 14-3-3 protein gamma (Homo sapiens, UniProt P61981). Description: modulators of 14-3-3 gamma client binding – dose response (AID 711). In kind it is functional.

The structures appear in SMILES notation. The source made the active and inactive calls.

Sequence of Nonstructural protein 1 (Q194T2 whole entry): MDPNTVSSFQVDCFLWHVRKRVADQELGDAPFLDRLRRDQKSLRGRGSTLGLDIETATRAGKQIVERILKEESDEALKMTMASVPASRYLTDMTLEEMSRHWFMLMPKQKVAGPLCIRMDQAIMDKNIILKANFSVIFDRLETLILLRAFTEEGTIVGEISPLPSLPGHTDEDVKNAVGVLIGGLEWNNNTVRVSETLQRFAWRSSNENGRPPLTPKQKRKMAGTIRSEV
Sequence of Large T antigen (P03070 whole entry): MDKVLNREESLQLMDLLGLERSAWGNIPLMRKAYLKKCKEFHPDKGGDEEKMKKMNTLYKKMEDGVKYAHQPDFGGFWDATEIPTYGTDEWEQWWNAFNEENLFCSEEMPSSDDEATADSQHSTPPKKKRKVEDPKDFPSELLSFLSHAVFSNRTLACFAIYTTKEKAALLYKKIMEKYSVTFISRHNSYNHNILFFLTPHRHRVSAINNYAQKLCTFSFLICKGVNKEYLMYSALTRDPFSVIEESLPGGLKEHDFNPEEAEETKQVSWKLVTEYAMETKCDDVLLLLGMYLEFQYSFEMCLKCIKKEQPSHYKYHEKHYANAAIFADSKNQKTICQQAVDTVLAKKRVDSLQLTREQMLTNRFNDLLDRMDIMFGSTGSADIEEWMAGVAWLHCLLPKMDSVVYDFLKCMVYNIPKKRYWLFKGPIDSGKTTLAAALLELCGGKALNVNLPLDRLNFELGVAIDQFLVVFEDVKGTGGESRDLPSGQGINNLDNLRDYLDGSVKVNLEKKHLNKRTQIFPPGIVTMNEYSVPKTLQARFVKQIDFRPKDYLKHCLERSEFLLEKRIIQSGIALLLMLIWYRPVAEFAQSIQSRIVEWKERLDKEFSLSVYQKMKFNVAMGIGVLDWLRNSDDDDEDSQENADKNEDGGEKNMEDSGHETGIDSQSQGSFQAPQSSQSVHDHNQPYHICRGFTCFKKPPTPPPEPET
Sequence of 14-3-3 protein gamma (P61981 whole entry): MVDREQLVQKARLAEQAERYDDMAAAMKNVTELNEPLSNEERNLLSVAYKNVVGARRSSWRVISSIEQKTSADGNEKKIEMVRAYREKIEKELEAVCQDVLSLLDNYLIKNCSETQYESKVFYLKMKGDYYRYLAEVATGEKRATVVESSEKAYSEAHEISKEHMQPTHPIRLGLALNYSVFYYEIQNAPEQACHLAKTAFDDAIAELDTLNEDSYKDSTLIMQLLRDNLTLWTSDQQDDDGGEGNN
Sequence of Peroxisome proliferator-activated receptor gamma/Nuclear receptor corepressor 2 (P37231 whole entry): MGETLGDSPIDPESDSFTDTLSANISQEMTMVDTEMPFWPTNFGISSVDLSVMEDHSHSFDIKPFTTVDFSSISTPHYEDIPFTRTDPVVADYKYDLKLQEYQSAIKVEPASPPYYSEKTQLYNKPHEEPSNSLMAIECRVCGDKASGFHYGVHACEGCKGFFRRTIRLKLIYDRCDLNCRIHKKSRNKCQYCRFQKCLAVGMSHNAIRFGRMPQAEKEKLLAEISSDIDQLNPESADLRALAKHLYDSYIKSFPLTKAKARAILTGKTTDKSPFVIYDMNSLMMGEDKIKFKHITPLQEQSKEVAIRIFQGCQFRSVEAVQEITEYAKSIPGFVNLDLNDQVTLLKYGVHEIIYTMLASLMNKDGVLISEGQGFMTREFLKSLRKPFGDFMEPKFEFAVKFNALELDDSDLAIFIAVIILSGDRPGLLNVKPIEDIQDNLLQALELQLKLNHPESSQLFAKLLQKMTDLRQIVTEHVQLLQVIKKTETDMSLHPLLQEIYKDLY
Sequence of Peroxisome proliferator-activated receptor gamma/Nuclear receptor corepressor 2 (Q9Y618 whole entry): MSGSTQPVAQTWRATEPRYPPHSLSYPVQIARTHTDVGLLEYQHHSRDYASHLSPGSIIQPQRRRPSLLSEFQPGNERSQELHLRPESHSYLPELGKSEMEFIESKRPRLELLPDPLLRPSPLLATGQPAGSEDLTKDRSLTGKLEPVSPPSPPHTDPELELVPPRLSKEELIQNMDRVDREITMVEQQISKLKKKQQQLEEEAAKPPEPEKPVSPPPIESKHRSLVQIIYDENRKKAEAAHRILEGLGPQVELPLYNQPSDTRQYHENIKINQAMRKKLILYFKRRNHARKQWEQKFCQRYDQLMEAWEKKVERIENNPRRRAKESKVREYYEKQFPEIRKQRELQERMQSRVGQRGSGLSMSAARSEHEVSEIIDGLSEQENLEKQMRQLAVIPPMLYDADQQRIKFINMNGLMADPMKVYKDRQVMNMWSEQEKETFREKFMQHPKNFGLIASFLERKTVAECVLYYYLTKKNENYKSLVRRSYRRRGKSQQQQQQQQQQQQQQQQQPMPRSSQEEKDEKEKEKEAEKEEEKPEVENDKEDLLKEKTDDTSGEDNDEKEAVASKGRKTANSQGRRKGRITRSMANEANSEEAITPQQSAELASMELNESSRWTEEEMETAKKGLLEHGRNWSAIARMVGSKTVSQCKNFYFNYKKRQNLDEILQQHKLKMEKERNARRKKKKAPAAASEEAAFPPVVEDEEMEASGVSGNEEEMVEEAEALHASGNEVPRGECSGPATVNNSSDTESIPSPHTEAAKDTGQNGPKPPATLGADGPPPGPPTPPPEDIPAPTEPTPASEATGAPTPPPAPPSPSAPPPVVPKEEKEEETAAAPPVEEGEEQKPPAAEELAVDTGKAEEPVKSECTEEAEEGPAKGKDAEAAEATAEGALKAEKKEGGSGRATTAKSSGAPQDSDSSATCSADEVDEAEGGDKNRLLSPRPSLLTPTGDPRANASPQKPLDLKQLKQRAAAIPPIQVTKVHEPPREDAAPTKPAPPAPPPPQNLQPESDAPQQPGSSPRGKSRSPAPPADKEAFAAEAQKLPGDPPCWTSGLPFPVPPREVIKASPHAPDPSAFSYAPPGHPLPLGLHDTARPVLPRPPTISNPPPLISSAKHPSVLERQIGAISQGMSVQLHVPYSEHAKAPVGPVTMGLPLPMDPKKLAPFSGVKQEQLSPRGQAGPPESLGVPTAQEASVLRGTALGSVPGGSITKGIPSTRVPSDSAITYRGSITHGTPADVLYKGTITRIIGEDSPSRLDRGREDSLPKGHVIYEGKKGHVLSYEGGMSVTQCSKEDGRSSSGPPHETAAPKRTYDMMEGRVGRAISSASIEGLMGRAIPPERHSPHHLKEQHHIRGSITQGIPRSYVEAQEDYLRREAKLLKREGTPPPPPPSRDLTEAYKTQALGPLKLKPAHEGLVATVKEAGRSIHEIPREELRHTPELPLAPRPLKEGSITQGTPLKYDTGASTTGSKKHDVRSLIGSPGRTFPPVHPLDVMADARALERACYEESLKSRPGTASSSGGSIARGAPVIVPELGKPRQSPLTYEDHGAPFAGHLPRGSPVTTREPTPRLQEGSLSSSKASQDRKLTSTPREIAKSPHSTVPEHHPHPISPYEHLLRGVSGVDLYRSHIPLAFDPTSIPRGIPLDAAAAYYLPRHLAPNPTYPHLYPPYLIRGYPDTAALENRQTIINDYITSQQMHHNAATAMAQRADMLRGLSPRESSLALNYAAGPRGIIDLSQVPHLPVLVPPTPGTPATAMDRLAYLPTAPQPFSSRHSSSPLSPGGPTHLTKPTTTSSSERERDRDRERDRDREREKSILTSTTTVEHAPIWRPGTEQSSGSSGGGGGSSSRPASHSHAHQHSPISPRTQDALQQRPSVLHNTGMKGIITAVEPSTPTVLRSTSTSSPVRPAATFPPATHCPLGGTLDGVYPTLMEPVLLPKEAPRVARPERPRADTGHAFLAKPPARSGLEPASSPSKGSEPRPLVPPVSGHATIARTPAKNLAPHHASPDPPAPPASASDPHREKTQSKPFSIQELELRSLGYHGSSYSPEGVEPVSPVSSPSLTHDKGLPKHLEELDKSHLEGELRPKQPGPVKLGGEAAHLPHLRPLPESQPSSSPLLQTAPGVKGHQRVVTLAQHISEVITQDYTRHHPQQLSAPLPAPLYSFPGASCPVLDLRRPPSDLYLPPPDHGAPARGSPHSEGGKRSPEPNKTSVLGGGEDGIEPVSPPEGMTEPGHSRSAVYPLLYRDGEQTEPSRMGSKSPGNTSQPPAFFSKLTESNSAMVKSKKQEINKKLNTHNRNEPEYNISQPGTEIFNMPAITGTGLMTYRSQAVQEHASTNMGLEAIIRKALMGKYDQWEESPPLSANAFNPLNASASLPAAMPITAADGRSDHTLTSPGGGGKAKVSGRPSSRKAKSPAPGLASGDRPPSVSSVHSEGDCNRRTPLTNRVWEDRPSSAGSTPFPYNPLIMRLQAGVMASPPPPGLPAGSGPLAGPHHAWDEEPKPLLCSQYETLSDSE
Sequence of Sphingosine 1-phosphate receptor 2 (O95136 whole entry): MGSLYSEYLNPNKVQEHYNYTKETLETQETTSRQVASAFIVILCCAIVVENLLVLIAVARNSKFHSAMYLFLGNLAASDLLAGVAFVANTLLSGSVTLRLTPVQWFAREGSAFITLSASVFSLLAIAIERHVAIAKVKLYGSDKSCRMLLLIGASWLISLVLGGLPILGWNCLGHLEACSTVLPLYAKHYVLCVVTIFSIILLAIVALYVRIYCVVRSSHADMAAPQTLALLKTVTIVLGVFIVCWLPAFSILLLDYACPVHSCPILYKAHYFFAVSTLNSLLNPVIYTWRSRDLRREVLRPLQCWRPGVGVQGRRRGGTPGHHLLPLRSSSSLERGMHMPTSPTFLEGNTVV
Sequence of Paired box protein Pax-8 (Q06710 whole entry): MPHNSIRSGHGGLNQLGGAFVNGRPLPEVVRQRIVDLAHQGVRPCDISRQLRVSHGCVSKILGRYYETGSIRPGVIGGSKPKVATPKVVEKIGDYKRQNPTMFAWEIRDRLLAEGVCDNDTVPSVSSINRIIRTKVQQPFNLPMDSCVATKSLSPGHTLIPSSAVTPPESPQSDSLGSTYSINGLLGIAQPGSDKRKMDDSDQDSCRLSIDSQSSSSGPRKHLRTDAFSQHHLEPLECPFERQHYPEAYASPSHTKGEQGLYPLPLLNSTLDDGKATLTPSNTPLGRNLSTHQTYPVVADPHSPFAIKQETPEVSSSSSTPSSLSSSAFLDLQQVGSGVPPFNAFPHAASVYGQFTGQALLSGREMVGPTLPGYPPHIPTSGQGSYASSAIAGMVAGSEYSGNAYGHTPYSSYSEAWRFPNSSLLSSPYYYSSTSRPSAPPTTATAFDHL

A word on the EC50: it is the concentration that produces a half-maximal response. In the case of `C=CCN(CC=C)C(=S)NC(=O)/C=C/c1ccc(OC)cc1`, the EC50 in [1] was 3.01 µM (active).

Usually IC50 stands for the concentration at which inhibition is half-maximal. As a reminder, the AC50 is the concentration at which the activity in the assay is half-maximal. A word on the CC50: it is the concentration giving 50% cytotoxicity. Consider `O=C(Nc1ccc(N2CCN(C(=O)c3cccs3)CC2)cc1)c1ccc([N+](=O)[O-])o1`, for which the IC50 in assay [2] is 1.77 µM (active); in [4], < 0.1 µM (active). Also, the half-maximal activity concentration (AC50) in [3] was 1.5 µM (active); in [6], 1.96 µM (active). The CC50 in [5] is > 20 µM (active); in [7], 1.46 µM (active); in assay [8], 1.18 µM (active).

The Ki is the equilibrium dissociation constant of an inhibitor or competing ligand from its target. `CCOC(=O)N1CCN(c2cc(NCCC(=O)O)c3c4c(onc24)-c2ccccc2C3=O)CC1`: the Ki in [9] is > 66.7 µM (inactive). The IC50 in [10] is > 100 µM (active); in [11] it was 7.52 µM (active); in assay [12], 20.3 µM (active); in assay [13], 25.6 µM (active); in [14] it was 5.41 µM (not active).

`Fc1ccc(-n2nnc(-c3cccnc3Cl)n2)cc1`: the EC50 in assay [15] was > 67.5 µM (inactive). The IC50 was > 100 µM (not active) in assay [16], > 100 µM (not active) in assay [17] and 21 µM (active) in [18].

Consider `COc1cccc(C2C=C(c3ccc(OC)cc3OC)Nc3nnnn32)c1` (stereo unspecified), for which the EC50 is 9.03 µM (active) in [19] and 8.72 µM (active) in [20].

Consider `O=S(=O)(c1cnc(Cl)c(Cl)c1)N1CCc2ccccc21`, for which the IC50 in [21] is 3.96 µM (active).

Turning to `O=C(Nc1nccs1)c1cc(-c2ccccn2)nc2c(Cl)cccc12`, the concentration for half-maximal inhibition (IC50) in assay [22] is 2.89 µM (active); in [23] it was 3.87 µM (active).

Consider `CCCNC(=O)CN(C)CC(=O)c1cc(C)n(Cc2ccccc2)c1C`, for which, in [24], the half-maximal effective concentration (EC50) was > 30 µM (not active).

For the compound `CC(=O)N(C)c1ccc(NC(=O)Nc2ccc(Cl)cc2)cc1`, the IC50 in assay [25] is reported as > 20 µM (not active).

For `CNC(=O)C(Sc1ccccc1)c1ccccc1` (stereo unspecified), in assay [26], the half-inhibitory concentration (IC50) was > 50 µM (not active).
